# System: epidermal cells
# Assay: Apoptosis in living human skin organ cultures, green fluorescent TUNEL assay
# Type: cell-based
# Conditions: arrays removed after 5 minutes, 72 hours of exposure; pyramidal CMC-microneedle arrays
# Method: Cytoxan® was integrated at a concentration of 5 mg/g of CMC, enabling delivery of approximately about 140 μg per array. This is a therapeutically relevant concentration based on the area of skin targeted, yet well below levels associated with systemic toxicities. Living human skin organ cultures were used to assess the cytotoxicty of Cytoxan®. Cytoxan® was delivered by application of arrays to skin explants as we previously described. Arrays and residual material were removed 5 minutes after application, and after 72 hours of exposure, culture living skin explants were cryo-sectioned and fixed.
compound,measurement,value
"O=P1(N(CCCl)CCCl)NCCCO1 (stereo not shown) [Cytoxan®, cyclophosphamide]",apoptosis (TUNEL),extensive apoptosis of epidermal cells

# From patent publication US9944019B2, “Tip-loaded microneedle arrays for transdermal insertion” (University of Pittsburgh—Of the Commonwealth System of …, priority 2012, dated 2018)
